Structures can show the parent of a compound that is named as a salt. Where two headings read alike, the source gives them in different places.

IC50 data for three molecules are collected here from patent US5043342A (priority 1988, dated 1991).

In test [1] the target is muscarinic receptors. In words: Radioligand binding: displacement of the muscarinic agonist 3H-Oxotremorine-M (3H-OXO-M) from rat cerebral cortex. On the set-up: species or system Hooded Lister rats. The following applies: 2 nM 3H-OXO-M, rat cerebral cortex homogenate, 2 mM magnesium chloride, 37° C., 30 min, tested as the oxalate salt.
Test [2] has as its target muscarinic receptors. The class given is binding, Hooded Lister rats. To be noted: 0.27 nM 3H-QNB, rat cerebral cortex homogenate, 37° C., 30 min, tested as the oxalate salt.

One may read the IC50 as the midpoint of a concentration-inhibition curve. `CCc1noc([C@@H]2CN3CC[C@@H]2C3)n1` (relative stereo) [Example E1, (±) exo-3-(3-Ethyl-1,2,4-oxadiazol-5-yl)-1-azabicyclo-[2.2.1]heptane oxalate salt]: the IC50 was found to be 31 nM at muscarinic receptors [1] and 940 nM on muscarinic receptors [2].

For the molecule `CCc1noc(C2CN3CCC2C3)n1` (single isomer, unassigned; (+)) [Example E2, (+) exo-3-(3-Ethyl-1,2,4-oxadiazol-5-yl)-1-azabicyclo-[2.2.1]heptane oxylate salt], the IC50 is 26 nM at muscarinic receptors [1] and 1590 nM on muscarinic receptors [2].

Turning to `CCc1noc(C2CN3CCC2C3)n1` (single isomer, unassigned; (-)) [Example E3, (-) exo-(3-Ethyl-1-1,2,4-oxadiazol-5-y1)-1-azabicyclo-[2.2.1]heptane oxalate salt], the values for the IC50 at muscarinic receptors [1] (oxalate salt) and at muscarinic receptors [2] (oxalate salt) were 36 nM and 725 nM, respectively.
